Experimental findings from ChEMBL document CHEMBL1155227, “Identification of N-(5-tert-butyl-isoxazol-3-yl)-N'-{4-[7-(2-morpholin-4-yl-ethoxy)imidazo[2,1-b][1,3]benzothiazol-2-yl]phenyl}urea dihydrochloride (AC220), a uniquely potent, selective, and efficacious FMS-like tyrosine kinase-3 (FLT3) inhibitor” (J Med Chem, 2009) are described below.

The Kd is the equilibrium constant for the complex coming apart. Read a low Kd as higher affinity. Usually IC50 stands for the concentration that gives 50% inhibition. Read a high IC50 as weaker potency. In general, Cmax refers to the maximum level reached in the sampled fluid or tissue. The AUC(0-inf) is the area under the concentration-time curve extrapolated to infinity. A lower AUC(0-inf) goes with low exposure. The term half-life denotes the time needed for the level to fall by half in the phase considered. Read a high half-life as slow loss.

In series [1] the target is T1, Receptor-type tyrosine-protein kinase FLT3 (Homo sapiens, UniProt P36888).
T1 sequence (P36888 whole entry): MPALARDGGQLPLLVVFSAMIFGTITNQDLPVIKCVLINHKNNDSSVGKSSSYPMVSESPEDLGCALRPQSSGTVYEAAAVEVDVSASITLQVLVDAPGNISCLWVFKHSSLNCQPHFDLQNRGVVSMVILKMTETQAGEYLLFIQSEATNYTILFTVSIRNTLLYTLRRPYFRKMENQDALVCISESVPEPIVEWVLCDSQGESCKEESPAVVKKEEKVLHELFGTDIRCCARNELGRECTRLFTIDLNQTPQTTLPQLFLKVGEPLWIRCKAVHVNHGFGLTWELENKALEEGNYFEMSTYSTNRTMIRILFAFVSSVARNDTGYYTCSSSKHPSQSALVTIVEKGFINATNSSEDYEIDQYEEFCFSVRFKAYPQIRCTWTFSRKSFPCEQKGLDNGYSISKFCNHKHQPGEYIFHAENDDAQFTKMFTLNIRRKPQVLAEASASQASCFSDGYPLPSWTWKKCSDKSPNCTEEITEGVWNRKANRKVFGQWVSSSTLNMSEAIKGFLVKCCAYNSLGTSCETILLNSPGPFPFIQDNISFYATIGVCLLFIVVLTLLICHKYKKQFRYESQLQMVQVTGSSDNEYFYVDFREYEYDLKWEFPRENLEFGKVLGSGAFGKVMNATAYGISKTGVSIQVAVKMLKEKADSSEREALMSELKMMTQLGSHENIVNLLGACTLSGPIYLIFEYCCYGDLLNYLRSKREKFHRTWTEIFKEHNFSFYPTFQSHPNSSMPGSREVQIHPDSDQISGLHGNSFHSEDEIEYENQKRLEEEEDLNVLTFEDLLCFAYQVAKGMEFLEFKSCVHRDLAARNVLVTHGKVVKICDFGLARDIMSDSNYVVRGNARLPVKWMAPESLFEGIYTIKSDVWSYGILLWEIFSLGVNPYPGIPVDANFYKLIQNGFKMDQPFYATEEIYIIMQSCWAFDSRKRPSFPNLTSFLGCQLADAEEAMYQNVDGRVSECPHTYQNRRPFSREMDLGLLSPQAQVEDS
Briefly: biochemical. The format is cell-based, HEK293.
Description: Binding affinity to FLT3 catalytic domain expressed in HEK293 cells by competitive binding assay

A further series deals with MV4-11. Briefly: cells. Conditions: Homo sapiens, MV4-11, 72 h.
Series [2] can be described thus: in vivo. Conditions: athymic nude, mouse, po, 10 mg/kg.
Description: Cmax in athymic nude mouse at 10 mg/kg, po
A short description of series [3]: in vivo. Conditions: athymic nude, mouse, plasma, po, 10 mg/kg.
Description: AUC (0 to infinity) in athymic nude mouse at 10 mg/kg, po
The nature of series [4]: in vivo. To be noted: athymic nude, mouse, po, 10 mg/kg. This is another data set of the same source.
Description: Half life in athymic nude mouse at 10 mg/kg, po

Description for MV4-11: Antiproliferative activity against human MV4-11 cells after 72 hrs by cell titer-blue cell viability assay

In series [1], `CC(C)(C)c1cc(NC(=O)Nc2ccc(-c3cn4c(n3)sc3ccc(OCCN5CCOCC5)cc34)cc2)no1` returned a Kd of 2.3 nM. Moreover, in the series with MV4-11, the IC50 is 0.56 nM.
For the compound `CN1CCN(CCCOc2ccc3c(c2)sc2nc(-c4ccc(NC(=O)Nc5cc(C(C)(C)C)on5)cc4)cn23)CC1`, the Kd in series [1] worked out at 1.7 nM. Moreover, the IC50 in the series with MV4-11 is 0.78 nM.
With `CC(C)(C)c1cc(NC(=O)Nc2ccc(-c3cn4c(n3)sc3cc(OCCCN5CCOCC5)ccc34)cc2)no1`, the Kd in series [1] was determined as 0.99 nM. Also, in the series with MV4-11, the IC50 stood at 0.79 nM.
In the case of `CC(C)(C)c1cc(NC(=O)Nc2ccc(-c3cn4c(n3)sc3cc(CCC(=O)N5CCOCC5)ccc34)cc2)no1`, the affinity in series [1], expressed as Kd, was 1.5 nM. For the same compound, the IC50 in the series on MV4-11 was found to be 0.23 nM.
In turn, `CCN1CCN(C(=O)c2ccc3c(c2)sc2nc(-c4ccc(NC(=O)Nc5cc(C(C)(C)C)on5)cc4)cn23)CC1` had a Kd in series [1] of 0.98 nM. The compound also registered a half-maximal inhibitory concentration (IC50) with MV4-11 of 0.41 nM. The compound also came in with a Cmax in “in vivo [2]” of 490 nM. This compound came in with a total exposure AUC(0-inf) in “in vivo [3]” of 0.67 µM·h. In addition, the half-life in the series “in vivo [4]” is 6.7 h.
Turning to `CCN1CCN(C(=O)CCc2ccc3c(c2)sc2nc(-c4ccc(NC(=O)Nc5cc(C(C)(C)C)on5)cc4)cn23)CC1`, the Kd in series [1] is 2 nM. The IC50 in the series on MV4-11 came out at 0.66 nM.
For `CC(C)(C)c1cc(NC(=O)Nc2ccc(-c3cn4c(n3)sc3cc(OCCN5CCCCC5)ccc34)cc2)no1` the same measures were 1.5 nM and 0.88 nM.
The compound `CC(C)(C)c1cc(NC(=O)Nc2ccc(-c3cn4c(n3)sc3cc(O)ccc34)cc2)no1` had a Kd in series [1] of 2.7 nM. The compound further yielded an IC50 in the series with MV4-11 of 0.15 nM.
As for `CN1CCN(c2ccc3c(c2)sc2nc(-c4ccc(NC(=O)Nc5cc(C(C)(C)C)on5)cc4)cn23)CC1`, binding in series [1] was characterised by a dissociation constant (Kd) of 1.2 nM. Moreover, in the series with MV4-11, the IC50 turned out to be 0.62 nM.
`CC(C)(C)c1cc(NC(=O)Nc2ccc(-c3cn4c(n3)sc3cccc(OCCN5CCOCC5)c34)cc2)no1` gave a dissociation constant (Kd) in series [1] of 5.2 nM. This compound also displayed a half-inhibitory concentration (IC50) in the series on MV4-11 of 9.3 nM.
Take `CC(C)(C)c1cc(NC(=O)Nc2ccc(-c3cn4c(n3)sc3ccccc34)cc2)no1`: in series [1], the dissociation constant Kd is 1.9 nM. This compound showed an IC50 in the series on MV4-11 of 0.35 nM.
In series [1], `CCN1CCN(Cc2ccc3c(c2)sc2nc(-c4ccc(NC(=O)Nc5cc(C(C)(C)C)on5)cc4)cn23)CC1` displayed a Kd of 1.1 nM. 0.38 nM corresponded to half-maximal inhibition in the series with MV4-11 (IC50).
In the case of `CC(C)(C)c1cc(NC(=O)Nc2ccc(-c3cn4c(n3)sc3cc(CCC(=O)O)ccc34)cc2)no1`, in series [1], the affinity, expressed as Kd, was 1.3 nM. In the series on MV4-11, this compound had an IC50 of 0.41 nM.
`CC(C)(C)c1cc(NC(=O)Nc2ccc(-c3cn4c(n3)sc3cc(CCCN5CCOCC5)ccc34)cc2)no1` displayed a Kd in series [1] of 1.3 nM. Also, it took 0.53 nM to reach half-maximal inhibition in the series on MV4-11 (IC50). In the series “in vivo [2]”, this compound showed a maximum concentration (Cmax) of 2190 nM. Also, in the series “in vivo [3]”, the AUC(0-inf) was 14.6 µM·h. The half-life in the series “in vivo [4]” is 2.3 h.
The compound `CC(C)(C)c1cc(NC(=O)Nc2ccc(-c3cn4c(n3)sc3cc(C(=O)O)ccc34)cc2)no1` gave an equilibrium dissociation constant (Kd) in series [1] of 1.6 nM. The 50% inhibitory concentration (IC50) with MV4-11 was 1 nM. For the same compound, the highest level in “in vivo [2]” (Cmax) was 2090 nM. In the series “in vivo [3]”, this compound gave an AUC(0-inf) of 21.3 µM·h. The half-life in “in vivo [4]” was 4.5 h.
Consider `CC(C)(C)c1cc(NC(=O)Nc2ccc(-c3cn4c(n3)sc3cc(OCCCN5CCN(S(C)(=O)=O)CC5)ccc34)cc2)no1`, for which the Kd in series [1] is 9.7 nM. Moreover, the IC50 with MV4-11 amounted to 1.1 nM. In addition, the peak concentration (Cmax) in “in vivo [2]” was found to be 1580 nM. In the series “in vivo [3]”, this compound yielded a total exposure AUC(0-inf) of 11.7 µM·h. This compound gave a half-life in “in vivo [4]” of 4.6 h.
